Tests used:
[1] = molecular target: T1, catechol O-methyl transferase (COMT) (Homo sapiens, UniProt P21964); experiment: 4-MeOE2 formation in MCF-7 cells/lysate; […] decrease at […]; format: cell-based; details: MCF7
T1 construct: endogenous COMT in MCF-7 whole cell lysate
T1 sequence (P21964 1-271): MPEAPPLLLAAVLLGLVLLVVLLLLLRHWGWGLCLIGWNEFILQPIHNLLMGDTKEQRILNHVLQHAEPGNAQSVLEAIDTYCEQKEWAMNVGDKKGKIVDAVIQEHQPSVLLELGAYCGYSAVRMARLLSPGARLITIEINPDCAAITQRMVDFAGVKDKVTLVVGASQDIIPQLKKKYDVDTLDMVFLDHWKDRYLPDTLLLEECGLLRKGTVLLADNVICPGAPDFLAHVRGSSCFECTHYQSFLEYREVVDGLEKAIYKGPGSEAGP

[2] = molecular target: T2, catechol O-methyl transferase (COMT) (Homo sapiens, UniProt P21964); experiment: inhibition of recombinant COMT O-methylation of 4-OHE2 by HPLC-DAD (IC50 […]); also a substrate (Km […]); format: biochemical
T2 construct: recombinant human soluble COMT, hexahistidine-tagged
T2 sequence (P21964 51-271 limits assumed): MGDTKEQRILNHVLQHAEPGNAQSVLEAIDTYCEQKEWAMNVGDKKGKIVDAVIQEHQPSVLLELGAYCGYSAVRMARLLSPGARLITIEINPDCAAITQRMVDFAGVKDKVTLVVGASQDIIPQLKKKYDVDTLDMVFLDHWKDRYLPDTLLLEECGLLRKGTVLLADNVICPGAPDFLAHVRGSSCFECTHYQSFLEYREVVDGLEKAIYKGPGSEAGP

SMILES: O=C(c1cc(O)c(O)c([N+](=O)[O-])c1)c1ccccc1F [Ro 41-0960]
- inhibition at 10 µM [1]: 88%

SMILES: C[C@H](Cc1ccc(O)c(O)c1)[C@H](C)Cc1ccc(O)c(O)c1 [compound 1, 4-[4-(3,4-dihydroxyphenyl)-2,3-dimethylbutyl] benzene-1,2-diol]
- Ki [2]: 15.7 µM
